Experimental findings from patent publication US9259467B2, “Mammalian receptors as targets for antibody and active vaccination therapy against mold infections” (Los Angeles Biomedical Research Institute at Harbor-UCLA …, priority 2009, dated 2016) are described below.

Common to all, as to type: cell-based, human
Assay [1] deals with R. oryzae germlings on endothelial cells. Put plainly: Differential fluorescence assay of adherence and endocytosis of R. oryzae germlings by endothelial cells. The following applies: for Reduction of endothelial cell endocytosis of R. oryzae: phenanthroline 60 μM for 16 hours, cytochalasin D 200 nM. How it is done: The number of organisms endocytosed by endothelial cells or CHO cells was determined using a modification of a previously described differential fluorescence assay (Ibrahim et al., Infect Immun. 63(11):4368-4374 (1995)). Briefly, 12-mm glass coverslips in a 24-well cell culture plate were coated with fibronectin for at least 4 hours and seeded with endothelial or CHO cells until confluency. After washing twice with prewarmed HBSS, the cells were then infected with 10^5 cells of R. oryzae in RPMI 1640 medium that had been germinated for 1 hour. Following incubation for 3 hours, the cells were fixed in 3% paraformaldehyde and were stained for 1 hour with 1% Uvitex (a gift from Jay Isharani, Ciba-Geigy, Greensboro, N.C., USA), which specifically binds to the chitin of the fungal cell wall. After washing 3 times with PBS, the coverslips were mounted on a glass slide with a drop of ProLong Gold antifade reagent and sealed with nail polish. The total number of cell-associated organisms (i.e., germlings adhering to monolayer) was determined by phase-contrast microscopy. The same field was examined by epifluorescence microscopy, and the number of uninternalized germlings (which were brightly fluorescent) was determined. The number of endocytosed organisms was calculated by subtracting the number of fluorescent organisms from the total number of visible organisms. At least 400 organisms were counted in 20-40 different fields on each slide. Two slides per arm were used for each experiment, and the experiment was performed in triplicate on different days. […]
To determine the effects of chelating endothelial cell iron on interactions with R. oryzae, endothelial cells were incubated with different concentrations of phenanthroline for 16 hours. To prevent chelation of the radioisotope, ^51Cr was added to endothelial cells 24 hours prior to the addition of phenanthroline (Fratti et al., Infect Immun. 66(1):191-196 (1998)). To confirm that the effects of phenanthroline on R. oryzae-induced endocytosis by and damage of endothelial cells were due to chelation of endothelial cell iron, exogenous iron in the form of hemin was added to endothelial cells at a final concentration of 20 μM, 2 hours before phenanthroline (Fratti et al., supra). As a positive control for prevention of endocytosis, the microfilament disruptant cytochalasin D (Sigma-Aldrich) was added at a concentration of 200 nM simultaneously with R. oryzae germlings, and endocytosis was determined as above (Ibrahim et al., Infect Immun. 63(11):4368-4374 (1995)). […]

Another assay relates to GRP78. Nature of the assay: Cell surface expression of GRP78 on endothelial cells by FACS. The following applies: high iron levels (0, 15, or 50 μM FeCl3 tested); flow cytometry. Here is the method: Cell surface expression of GRP78 on endothelial cells exposed to varying concentrations of FeCl3 was quantified using FACS analysis. Briefly, endothelial cells grown in 25-cm flasks were dissociated using 1.5 ml enzyme-free dissociation buffer (Invitrogen). Cells were blocked with 50% goat serum, then stained with monoclonal anti-GRP78 Ab (BD Biosciences) at 1:100 for 1 hour. Endothelial cells were counterstained with ALEXA FLUOR 488-labeled anti-mouse IgG at 1:100 for 1 hour. Endothelial cells exposed to a similar concentration of FeCl3 or glucose and stained with an isotype matching control IgG (BD Biosciences) were used as negative control. A FACSCaliber (BD) instrument equipped with an argon laser emitting at 488 nm was used for flow cytometric analysis. Fluorescence data were collected with logarithmic amplifiers. The population percent fluorescence of 5×10^3 events was calculated using CellQuest software (BD).
Background: A flow cytometer gives signals particle by particle.

The next assay deals with GRP78 transcript. Nature of the assay: Quantification of GRP78 expression in endothelial cells by real time RT-PCR. The settings on record: for GRP78 expression: data not shown. How it is done:
The transductions were performed according to the manufacturer's protocol. Briefly, 1.6×10^4 endothelial cells were seeded into 96-well plate and incubated for about 20 hours at 37° C. in a 5% CO2 incubator. Cells were infected with lentiviral particles at an MOI of 20 in the presence of 8 μg/ml polybrene (Sigma-Aldrich) overnight. The transduced cells were incubated in fresh M199 medium for 4 more days. Puromycin at 0.2 μg/ml was added to select for puromycin-resistant cell pools, which usually took approximately 10 days of incubating at 37° C. in 5% CO^2. The puromycin-resistant cells were passaged until an appropriate amount of cells was obtained for endocytosis or damage assays as above. Reduction of GRP78 expression was confirmed by using real time RT-PCR (see below).
For quantification of GRP78 expression in endothelial or CHO cells, real time RT-PCR was carried out using a Power SYBR Green Cells-to-CT kit (Applied Biosystems) to extract RNA from 2×10^4 cells. Primers to amplify GRP78 from endothelial cells and CHO cells were 5′-[…]-3′ (SEQ ID NO: 3) and 5′-[…]-3′ (SEQ ID NO: 4). Primers 5′-ACCATCTTCCAGGAGCGAG-3′ (SEQ ID NO: 5) and 5′-TAAGCAGTTGGTGGTGCAG-3′ (SEQ ID NO: 6) were used to amplify the housekeeping gene GAPDH, which was used as a control.
To study the effect of acidosis, endothelial cells exposed to different pHs, ranging from 6.8 to 7.4, were grown in MEM buffered with HEPES for 5 hours in the presence or absence of phenanthroline. Next, endothelial cells were washed twice with cold PBS, and GRP78 total expression was quantified by real-time RT-PCR. […] To study the effect of hyperosmolarity and statins on GRP78 expression, endothelial cells in MEM were incubated with 1, 4, or 8 mg/ml mannitol or 5, 20, or 40 μg/ml lovastatin for 20 hours. […] GRP78 expression, endocytosis, and damage assays were conducted as above.
In general terms: Quantitative PCR measures a nucleic acid by following its amplification.

Assay [2] relates to R. oryzae germlings on endothelial cells. Nature of the assay: 51Cr release assay of R. oryzae-induced endothelial cell damage. Here is the method:
R. oryzae-induced endothelial or CHO cell damage was quantified by using a chromium (^51Cr) release assay (Ibrahim et al., J Infect Dis. 198(7):1083-1090 (2008)). Briefly, endothelial cells or CHO cells grown in 96-well tissue culture plates containing detachable wells were incubated with 1 μCi per well of Na2^51CrO4 (ICN) in M-199 medium (for endothelial cells) or Alpha minimum Eagle's medium (for CHO cells) for 16 hours.
On the day of the experiment, the unincorporated ^51Cr was aspirated, and the wells were washed twice with warmed HBSS (Irvine Scientific). Cells were infected with fungal germlings (1.5×10^5 germinated for 1 hour) suspended in 150 μl RPMI 1640 medium (Irvine Scientific) supplemented with glutamine. Spontaneous ^51Cr release was determined by incubating endothelial or CHO cells in RPMI 1640 medium supplemented with glutamine without R. oryzae. […] The amount of ^51Cr in the aspirate and the detached well was determined by gamma counting. […] After the data were corrected for variations in the amount of tracer incorporated in each well, the percentage of specific endothelial cell release of ^51Cr was calculated by the following formula: [(experimental release×2)−(spontaneous release×2)]/[total incorporation−(spontaneous release×2)]. […]

Where [3] appears, read: 15 or 50 μM FeCl3, vs no exogenous FeCl3.

In the case of `[Cl][Fe]([Cl])[Cl]` [FeCl3], in assay [1] (setting [3]), the “Enhancement of R. oryzae-induced endocytosis” value was 80%. The “Increase of surface expression of GRP78 protein” value with GRP78 worked out at 150%. In the assay with GRP78 transcript (FeCl3 at iron concentrations of DKA sera, 5 hours, vs no iron), the “Increase in endothelial cell GRP78 expression” value is listed as no more than 12 fold. In assay [2] (setting [3]), the “Enhancement of R. oryzae-induced endothelial cell damage” value is on record as 80%.
Turning to `C=C1[C@@H](C)[C@H]2[C@H](Cc3ccccc3)NC(=O)[C@]23[C@H](OC(C)=O)/C=C/[C@@](C)(O)C(=O)[C@@H](C)C/C=C/[C@H]3[C@@H]1O` [cytochalasin D], the “Reduction of endothelial cell endocytosis of R. oryzae” value in assay [1] was “approximately 70%”.
In the case of `CC[C@H](C)C(=O)O[C@H]1C[C@@H](C)C=C2C=C[C@H](C)[C@H](CC[C@@H]3C[C@@H](O)CC(=O)O3)[C@H]21` [lovastatin], in the assay on GRP78 transcript (lovastatin 5, 20, or 40 μg/ml for 20 hours), the GRP78 expression entry is recorded as “No evidence of alterations in expression”.
As to `OC[C@@H](O)[C@@H](O)[C@H](O)[C@H](O)CO` [mannitol], the GRP78 expression result in the assay on GRP78 transcript (mannitol 1, 4, and 8 mg/ml for 20 hours) is reported as “No change in GRP78 expression”.
Consider `c1cnc2c(c1)ccc1cccnc12` [phenanthroline], for which the “Reduction of endothelial cell endocytosis of R. oryzae” value in assay [1] is given as “approximately 70%”. The “Endothelial cell GRP78 expression in the setting of acidosis” value in the assay on GRP78 transcript (pH 6.8 to 7.4, 5 hours, with phenanthroline) is given as “reversed GRP78 expression back to normal levels”. Also, the “R. oryzae-induced endothelial cell damage” value in assay [2] (varying concentrations of phenanthroline for 16 h, removed before assay) was “prevented R. oryzae-induced endothelial cell damage in a concentration-dependent manner”.
With hemin [exogenous iron], the “Effect on the inhibition of endocytosis caused by the iron chelator phenanthroline” value in assay [1] (hemin 20 μM added 2 hours before phenanthroline) is listed as “completely reversed the inhibition of endocytosis”.
